# Test results taken from patent US7598234B2, “Steroid derived antibiotics” (Brigham Young University, priority 1998, dated 2009).
# Experiments:
# E. coli (ATCC 10798) [1] = assay: Sensitization to erythromycin (concentration lowering the MIC of erythromycin), E. coli (ATCC 10798); type: cell-based, Escherichia coli; details: Table 2, E. coli (ATCC 10798)
# Description: (§1) Alternatively, “fractional inhibitory concentration (FIC)” is also useful for determination of synergy between the compounds of the invention, or the compounds in combination with known antibiotics. FICs can be performed by checkerboard titrations of compounds in one dimension of a microtiter plate, and of antibiotics in the other dimension, for example. The FIC is calculated by looking at the impact of one antibiotic on the MIC of the other and vice versa. […] Preferably, an FIC of less than 0.5 is obtained for synergism. As used herein, FIC can be determined as follows:
# (§2) Aliquots of 1 mL of the suspension were added to test tubes containing 1 mL TSB and incrementally varied concentrations of cholic acid derivatives and/or erythromycin or novobiocin. In the sensitization experiments, erythromycin or novobiocin were added 15 minutes later than the cholic acid derivatives. The samples were subjected to stationary incubation at 37° C. for 24 hours. Sample turbidity was determined by measuring absorption at 760 nm (HP 8453 UV-Visible Chemstation, Hewlett Packard). Additionally, an alliquot from each of the samples showing no measurable turbidity was subcultured on TSA plates (alliquots were diluted to provide fewer than 300 CFU). Colonies that grew on the subculture after overnight incubation were counted and the number of CFU/mL in the samples were calculated. The calculated values were compared to the number of CFU/mL in the original inoculum.
# (§3) Ability to permeabilize outer membrane: Compounds 11, 106, and 108-114 (FIG. 1) were tested for antibiotic activity. They were also tested for the ability to permeabilize the outer membrane of Gram-negative bacteria, causing sensitization to hydrophobic antibiotics that cannot cross the outer membrane. The permeabilization of the outer membrane was measured using erythromycin and novobiocin.
# (§4) The MICs of erythromycin and novobiocin against E. coli (ATCC 10798) at 70 and >500 μg/mL were measured.
# [2] = tested on: Pseudomonas aeruginosa (ATCC 27853); assay: Sensitization to novobiocin, Pseudomonas aeruginosa (ATCC 27853); type: cell-based; details: Table 8; P. aureginosa (ATCC 27853)
# Description: as §1
# as §2, with “inoculum. […]” for “inoculum.”
# (§5) To measure permeabilization, the FIC values for compounds 1, 2, 5, 106, 10, 112, 133, and 134 with erythromycin, novobiocin, and rifampicin were determined. Concentrations of 0.5, 1.0 or 3.0 μg/mL of these antibiotics were used, and the concentrations of the cholic acid derivatives required to inhibit bacterial growth of Gram-negative strains were determined.
# [3] = tested on: Pseudomonas aeruginosa (ATCC 27853); assay: MIC and MBC measurement with Pseudomonas aeruginosa (ATCC 27853); type: cell-based
# From the text: (§6) General: Microorganisms. Reference strains were purchased from the American Type Culture Collection (Rockville, Md.) or Bactrol disks from Difeo Laboratories (Detroit, Mich.). The following specific ATCC strains were used: 10798 Escherichia coli, 25922 Escherichia coli, 13883 Klebsiella pneumoniae, 27853 Pseudomonas aeruginosa, 14028 Salmonella typhimurium, 29212 Enterococcus faecalis, 25923 Staphylococcus aureus, 19615 Streptococcus pyogenes, and 90028 Candida albicans. Bacterial strains were maintained on Mueller-Hinton agar plates, and Candida albicans was maintained on Sabouraud Dextrose agar plates.
# (§7) Tryptic soy broth (TSB) was made by dissolving 27.5 grams of tryptic soy broth without dextrose (DIFCO Laboratories) in 1 liter of deionized water and sterilizing at 121° C. for 15 minutes. Solid agar (TSA) plates were made by dissolving 6.4 grams of tryptic soy broth and 12 grams of agar (purified grade, Fischer Scientific) in 800 mL of deionized water and sterilizing at 121° C. for 20 minutes. Aliquots (20 mL) of the homogeneous solution were then poured in sterile plastic petri dishes (100×15 mm, Fisher Scientific). Solutions of compounds were made by dissolving the HCl salt of the respective compound into an appropriate amount of deionized and sterilized water followed by microfiltration.
# as §2
# [4] = tested on: Streptococcus pyrogenes ATCC 19615; assay: MIC and MBC measurement with Streptococcus pyogenes ATCC 19615; type: cell-based; details: Table 10
# From the text: as §6, §7, §2
# [5] = tested on: Staphylococcus aureus ATCC 25923; assay: MIC and MBC measurement with Staphylococcus aureus ATCC 25923; type: cell-based; details: Table 10; Staphylococcus aureus ATCC 25923
# From the text: as §6, §7
# as §2, with “inoculum. […]” for “inoculum.”
# [6] = tested on: Klebsiella pneumonia ATCC 13883; assay: MIC and MBC measurement with Klebsiella pneumoniae ATCC 13883; type: cell-based; details: Table 10
# From the text: as §6, §7, §2
# E. coli (ATCC 25922) [7] = assay: MIC and MBC measurement with E. coli (ATCC 25922); type: cell-based, Escherichia coli
# From the text: as §6, §7
# as §2, with “inoculum. […]” for “inoculum.”
# [8] = Description: (§8) Minimum inhibition concentrations (MIC) and minimum hemolytic concentrations (MHC) were measured as described in Li et al., Antimicrob. Agents. Chemother., 1999, 43, 1347.
# E. coli (ATCC 10798) [9] = assay: Sensitization to novobiocin (concentration lowering the MIC of novobiocin), E. coli (ATCC 10798); type: cell-based, Escherichia coli; details: Table 3, E. coli (ATCC 10798)
# Description: as §1, §2, §3, §4
# [10] = tested on: Enterococcus faecalis ATCC 29212; assay: MIC and MBC measurement with Enterococcus faecalis ATCC 29212; type: cell-based; details: Table 10
# From the text: as §6, §7, §2
# [11] = tested on: Pseudomonas aeruginosa (ATCC 27853); assay: Sensitization to erythromycin, Pseudomonas aeruginosa (ATCC 27853); type: cell-based
# Description: as §1
# as §2, with “inoculum. […]” for “inoculum.”
# as §5
# [12] = tested on: Salmonella typhimurium ATCC 14028; assay: MIC and MBC measurement with Salmonella typhimurium ATCC 14028; type: cell-based; details: Table 10
# From the text: as §6, §7, §2
# E. coli (ATCC 25922) [13] = assay: Sensitization to erythromycin, E. coli (ATCC 25922); type: cell-based, Escherichia coli
# Description: FICs can be performed by checkerboard titrations of compounds in one dimension of a microtiter plate, and of antibiotics in the other dimension, for example. The FIC is calculated by looking at the impact of one antibiotic on the MIC of the other and vice versa. […] Preferably, an FIC of less than 0.5 is obtained for synergism. As used herein, FIC can be determined as follows:
# as §2
# Concentrations of 0.5, 1.0 or 3.0 μg/mL of these antibiotics were used, and the concentrations of the cholic acid derivatives required to inhibit bacterial growth of Gram-negative strains were determined.
# as §8
# E. coli (ATCC 10798) [14] = assay: MIC and MBC measurement with E. coli (ATCC 10798); type: cell-based, Escherichia coli; details: Table 1; E. coli (ATCC 10798)
# From the text: as §6, §7, §2
# [15] = tested on: Candida albicans ATCC 90028; assay: MIC and MBC measurement with Candida albicans ATCC 90028; type: cell-based; details: Table 10
# From the text: as §6, §7, §2
# Gram-negative bacteria [16] = assay: Sensitization to novobiocin, ester and amide side chain compounds (Table 14); type: cell-based; details: strain not given
# Description: as §2, §3
# (§9) Ester and amide side chains: Additional compounds, for example, compounds with amide and ester side chains, were tested.
# Gram-negative bacteria [17] = assay: MIC of ester and amide side chain compounds (Table 14); type: cell-based; details: strain not given
# Description: as §2, §9
# Gram-negative bacteria [18] = assay: Sensitization to erythromycin, ester and amide side chain compounds (Table 14); type: cell-based; details: Table 14; strain not given
# Description: as §2, §3, §9
# [19] = Table 6, P. aureginosa (ATCC 27853)
# [20] = Table 10, Pseudomonas aeruginosa ATCC 27853
# [21] = Table 10, Escherichia coli ATCC 25922
compound,measurement,setting,value
C[C@H](CCCN(C)Cc1ccccc1)[C@H]1CC[C@H]2[C@@H]3[C@H](OCCCNC(=N)N)C[C@@H]4C[C@H](OCCCNC(=N)N)CC[C@]4(C)[C@H]3C[C@H](OCCCNC(=N)N)[C@]12C [Compound 5],MIC: concentration required to lower the MIC of erythromycin from 70 μg/mL to 1 μg/mL,E. coli (ATCC 10798) [1],1 µg/mL
same,MBC (with erythromycin),E. coli (ATCC 10798) [1]; erythromycin sensitization,3 µg/mL
same,MIC: concentration required to lower the MIC of novobiocin from >500 μg/mL to 1 μg/mL,[2],6 µg/mL
same,MBC,[3]; [19],15 µg/mL
same,MIC,[3]; [19],6 µg/mL
same,MBC,[3]; [20],9.9 µg/mL
same,MIC,[3]; [20],5.9 µg/mL
same,MBC,[4],2.1 µg/mL
same,MIC,[4],2.0 µg/mL
same,MBC,[5],3.2 µg/mL
same,MIC,[5],0.6 µg/mL
same,MBC,[6],6.7 µg/mL
same,MIC,[6],3.0 µg/mL
same,MBC,"E. coli (ATCC 25922) [7]; Table 4, E. coli (ATCC 25922)",4 µg/mL
same,MIC,"E. coli (ATCC 25922) [7]; Table 4, E. coli (ATCC 25922)",2 µg/mL
same,MBC,E. coli (ATCC 25922) [7]; [21],3.8 µg/mL
same,MIC,E. coli (ATCC 25922) [7]; [21],1.4 µg/mL
same,MHC,[8],26 µg/mL
same,MIC: concentration required to lower the MIC of novobiocin from >500 μg/mL to 1 μg/mL,E. coli (ATCC 10798) [9],2 µg/mL
same,MBC (with novobiocin),E. coli (ATCC 10798) [9]; novobiocin sensitization,4 µg/mL
same,MBC,[10],16 µg/mL
same,MIC,[10],2.2 µg/mL
same,MIC: concentration required to lower the MIC of erythromycin from 240 μg/mL to 5 μg/mL,"[11]; Table 7, P. aureginosa (ATCC 27853)",3 µg/mL
same,MBC (with erythromycin),"[11]; Table 7, P. aureginosa (ATCC 27853), erythromycin sensitization",10 µg/mL
same,FIC,"[11]; Table 11, Pseudomonas aeruginosa ATCC 27853, erythromycin (by order)",0.42
same,concentration required to inhibit bacterial growth with antibiotic,"[11]; Table 11, Pseudomonas aeruginosa ATCC 27853, erythromycin (by order) at 0.5, 1.0 or 3.0 μg/mL",2.3 µg/mL
same,MBC,[12],3.8 µg/mL
same,MIC,[12],2.2 µg/mL
same,MIC: concentration required to lower the MIC of erythromycin from 60 μg/mL to 1 μg/mL,"E. coli (ATCC 25922) [13]; Table 5, E. coli (ATCC 25922)",1.5 µg/mL
same,MBC (with erythromycin),"E. coli (ATCC 25922) [13]; Table 5, E. coli (ATCC 25922), erythromycin sensitization",1.5 µg/mL
same,FIC,"E. coli (ATCC 25922) [13]; Table 11, Escherichia coli ATCC 25922, erythromycin (by order)",0.31
same,concentration required to inhibit bacterial growth with antibiotic,"E. coli (ATCC 25922) [13]; Table 11, Escherichia coli ATCC 25922, erythromycin (by order) at 0.5, 1.0 or 3.0 μg/mL",0.38 µg/mL
same,MBC,E. coli (ATCC 10798) [14],4 µg/mL
same,MIC,E. coli (ATCC 10798) [14],2 µg/mL
same,MBC,[15],50 µg/mL
same,MIC,[15],11 µg/mL
C[C@H](CCCN(C)Cc1ccccc1)[C@H]1CC[C@H]2[C@@H]3[C@H](OC(=O)CN)C[C@@H]4C[C@H](OC(=O)CN)CC[C@]4(C)[C@H]3C[C@H](OC(=O)CN)[C@]12C.Cl.Cl.Cl.Cl [Compound 6],MIC: concentration required to lower the MIC of erythromycin from 70 μg/mL to 1 μg/mL,E. coli (ATCC 10798) [1],22 µg/mL
same,b: concentration of cholic acid derivatives required to lower MIC of novobiocin to 1 μg/ML,Gram-negative bacteria [16],40 µg/mL
same,MIC,Gram-negative bacteria [17],85 µg/mL
same,a: concentration of cholic acid derivatives required to lower MIC of erythromycin to 1 μg/ML,Gram-negative bacteria [18],15 µg/mL
same,MIC,E. coli (ATCC 10798) [14],65 µg/mL
C[C@H](CCCO)[C@H]1CC[C@H]2[C@@H]3[C@H](OC(=O)CN)C[C@@H]4C[C@H](OC(=O)CN)CC[C@]4(C)[C@H]3C[C@H](OC(=O)CN)[C@]12C [Compound 203a],b: concentration of cholic acid derivatives required to lower MIC of novobiocin to 1 μg/ML,Gram-negative bacteria [16],55 µg/mL
same,MIC,Gram-negative bacteria [17],85 µg/mL
same,a: concentration of cholic acid derivatives required to lower MIC of erythromycin to 1 μg/ML,Gram-negative bacteria [18],18 µg/mL
C[C@H](CCCO)[C@H]1CC[C@H]2[C@@H]3[C@H](OC(=O)CCN)C[C@@H]4C[C@H](OC(=O)CCN)CC[C@]4(C)[C@H]3C[C@H](OC(=O)CCN)[C@]12C [Compound 203b],b: concentration of cholic acid derivatives required to lower MIC of novobiocin to 1 μg/ML,Gram-negative bacteria [16],10 µg/mL
same,MIC,Gram-negative bacteria [17],80 µg/mL
same,a: concentration of cholic acid derivatives required to lower MIC of erythromycin to 1 μg/ML,Gram-negative bacteria [18],4 µg/mL
